This is an account of results in US4994477A, “Heterocyclic renin inhibitors” (Abbott Laboratories, priority 1988, dated 1991).

The structures appear in SMILES notation.

The target in the test is T1, human renal renin (Homo sapiens, UniProt P00797).
T1 construct: human renal renin, free from acid proteolytic activity; from tissue; host or cells: human kidney (from the word 'renal')
T1 sequence (P00797 67-406): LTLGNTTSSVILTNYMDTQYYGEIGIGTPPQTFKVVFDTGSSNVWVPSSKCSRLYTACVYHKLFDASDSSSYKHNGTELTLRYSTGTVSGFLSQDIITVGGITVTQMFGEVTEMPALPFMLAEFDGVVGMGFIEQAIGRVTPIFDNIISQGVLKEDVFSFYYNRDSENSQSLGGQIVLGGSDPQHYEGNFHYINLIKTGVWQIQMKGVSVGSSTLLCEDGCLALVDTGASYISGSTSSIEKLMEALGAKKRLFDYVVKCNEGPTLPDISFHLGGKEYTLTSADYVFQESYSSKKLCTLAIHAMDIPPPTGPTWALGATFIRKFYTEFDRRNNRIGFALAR
As to the kind of experiment: inhibition of human renal renin in vitro, angiotensin I formed measured by radioimmunoassay. To be noted: human angiotensinogen substrate, 37 degrees C, pH 6.0. The format is biochemical. How it is done:
At the end of the incubation, the amount of angiotensin I formed is measured by radioimmunoassay and the molar concentration required to cause 50% inhibition, expressed as the IC50, is calculated.
The compound `O=C(N[C@@H](Cc1c[nH]cn1)C(=O)NCC(O)CO)c1[nH]c2ccccc2c1CCCC1CCCCC1` (stereo partly drawn) [Example 125, N-[3-(3-Cyclohexylpropyl)indolyl-2-carbonyl]-His Amide of 3-Amino-1,2-propanediol] registered an IC50 of 3800 nM.

Consider `CCN1C[C@@H]([C@H](O)[C@H](CC2CCCCC2)NC(=O)[C@H](Cc2c[nH]cn2)NC(=O)c2ccc3ccccc3n2)OC1=O` [Example 109, N-(Quinolinyl-2-carbonyl)-His Amide of (2'S,1'R,5S)-3-Ethyl-5-(1-hydroxy-2-amino-3-cyclohexylpropyl)oxazolidin-2-one], for which the IC50 is 36 nM.

`CC(C)C[C@H](O)[C@H](O)[C@H](CC1CCCCC1)NC(=O)[C@H](Cc1cscn1)N1Cc2c([nH]c3ccccc23)C1=O` [Example 81, (1'S,2"S,3"R,4"S)-2-[1-[N-(1-cyclohexyl-3,4-dihydroxy-6-methyl-2-heptyl)carbamoyl]-2-(4-thiazolyl)ethyl]-1,2,3,4-tetrahydropyrrolo[3,4-b]indol-3-one]: the IC50 is 5 nM.

Consider `CCN1C[C@@H]([C@H](O)[C@H](CC2CCCCC2)NC(=O)[C@H](Cc2c[nH]cn2)NC(=O)c2cc3ccccc3[nH]2)OC1=O` [Example 51, N-(Indolyl-2-carbonyl)-His-Amide of (2'S,1'R,5S)-3-Ethyl-5-(1'-hydroxy-2'-amino-3'-cyclohexylpropyl)oxazolidin-2one], for which inhibition was half-maximal at 12 nM (IC50).

`CCCC[C@@H](C(=O)N[C@@H](CC1CCCCC1)[C@@H](O)[C@@H](O)CC(C)C)N1CCc2c([nH]c3ccccc23)C1=O` [Example 96] registered a concentration for half-maximal inhibition (IC50) of 66 nM.

In the case of `CC(C)C[C@H](O)[C@H](O)[C@H](CC1CCCCC1)NC(=O)[C@H](CCC(=O)OCc1ccccc1)NC(=O)c1cc2ccccc2[nH]1` [Example 37, N-(Indolyl-2-carbonyl)-γ-benzyl-Glu Amide of 2(S)-Amino-1-cyclohexyl-3(R),4(S)-dihydroxy-6-methylheptane], the IC50 came to 130 nM.

Consider `O=C(N[C@@H](Cc1c[nH]cn1)C(=O)NCC(O)CO)c1[nH]c2ccccc2c1CCc1ccccc1` (stereo partly drawn) [Example 130, [3-(2-Phenylethyl)indolyl-2-carbonyl]-His Amide of 3-Amino-1,2-propanediol], for which 10000 nM corresponded to half-maximal inhibition (IC50).

Regarding `CC(C)C[C@H](O)[C@H](O)[C@H](CC1CCCCC1)NC(=O)[C@H](Cc1c[nH]cn1)NC(=O)c1cc2ccccc2[nH]1` [Example 35, N-(Indolyl-2-carbonyl)-His Amide of 2(S)-Amino-1-cyclohexyl-3(R),4'(S)-dihydroxy-6-methylheptane], half-maximal inhibition (IC50) required 3.3 nM.

Consider `CC(C)C[C@H](O)[C@H](O)[C@H](CC1CCCCC1)NC(=O)[C@H](Cc1c[nH]cn1)NC(=O)c1ccc2ccccc2c1` [Example 151, N-(2-Napthoyl)-His Amide of 2(S)-Amino-1-cyclohexyl-3(R),4(S)-dihydroxy-6-methylheptane], for which it took 32 nM to reach half-maximal inhibition (IC50).

In the case of `CC(C)C[C@H](O)[C@H](O)[C@H](CC1CCCCC1)NC(=O)[C@H](Cc1c[nH]cn1)NC(=O)c1nc2ccccc2s1` [Example 45, N-(Benzothiazolyl-2-carbonyl)-His Amide of 2(S)-Amino-1-cyclohexyl-3(R),4(S)-dihydroxy-6-methylheptane], the IC50 turned out to be 31 nM.

In turn, `CC(C)C[C@H](O)[C@H](O)[C@H](CC1CCCCC1)NC(=O)[C@H](Cc1c[nH]cn1)N1CCc2c([nH]c3ccccc23)C1=O` [Example 101, (1'S,2"S,3"R,4"S)-2-[1-[N-(1-Cyclohexyl-3,4-dihydroxy-6-methyl-2-heptyl)carbamoyl]-2-(4-imidazolyl)ethyl]-1,2,3,4-tetrahydro-9H-pyrido[3,4-b]indol-1-one] had an IC50 of 67 nM.

The compound `CCN1C[C@@H]([C@H](O)[C@H](CC2CCCCC2)NC(=O)C(Cc2cscn2)N2Cc3c([nH]c4ccccc34)C2=O)OC1=O` (stereo partly drawn) [Example 88, (1'RS,2"S,3"R,5"'S)-2-[1-[N-[1-Cyclohexyl-3-hydroxy-3-(3-ethyloxazolidin-2-on-5-yl)-2-propyl]carbamoyl]-2-(4-thiazolyl)ethyl]-1,2,3,4-tetrahydropyrrolo[3,4-b]indol-3-one] gave an IC50 of 28 nM.

In turn, `CC1=C(C(=O)N[C@@H](Cc2c[nH]cn2)C(=O)N[C@@H](CC2CCCCC2)[C@@H](O)[C@@H](O)CC(C)C)Cc2ccccc21` [Example 42, N-(3-Methylindenyl-2-carbonyl)-His Amide of 2(S)-Amino-1-cyclohexyl-3(R),4(S)-dihydroxy-6-methylheptane] gave an IC50 of 200 nM.

Regarding `CCN1C[C@@H]([C@H](O)[C@H](CC2CCCCC2)NC(=O)[C@H](Cc2c[nH]cn2)N2Cc3c([nH]c4ccccc34)C2=O)OC1=O` [Example 59, (1'S,2"S,3"R,5'"S)-2-[1-[N-[1-Cyclohexyl-3-hydroxy-3-(3-ethyloxazolidin-2-on-5-yl)-2-propyl]carbamoyl]-2-(4-imidazolyl)ethyl]-1,2,3,4-tetrahydropyrrolo[3,4-b]indol-3-one], half-maximal inhibition (IC50) was put at 19 nM.

On to `CC(C)C[C@H](O)[C@H](O)[C@H](CC1CCCCC1)NC(=O)[C@H](CC(C)C)N1Cc2c([nH]c3ccccc23)C1=O` [Example 70, (1'S,2"S,3"R,4"S)-2-[1-[N-(1-cyclohexyl-3,4-dihydroxy-6-methyl-2-heptyl)carbamoyl]-3-methylbutyl]-1,2,3,4-tetrahydropyrrolo[3,4-b]indol-3-one], for which the IC50 stood at 100 nM.

Compound `CCN1C[C@@H]([C@H](O)[C@H](CC2CCCCC2)NC(=O)C(Cc2cc[nH]n2)N2Cc3c([nH]c4ccccc34)C2=O)OC1=O` (stereo partly drawn) [Example 89, (1'RS,2"S,3"R,5"'S)-2-[1-[N-[1-Cyclohexyl-3-hydroxy-3-(3-ethyloxazolidin-2-on-5-yl)-2-propyl]carbamoyl]-2-(3-pyrazolyl)ethyl]-1,2,3,4-tetrahydropyrrolo[3,4-b]indol-3-one] had an IC50 of 89 nM.

`CC(C)C[C@H](O)[C@H](O)[C@H](CC1CCCCC1)NC(=O)[C@H](CCC(=O)O)NC(=O)c1cc2ccccc2[nH]1` [Example 38, N-(Indolyl-2-carbonyl)-Glu Amide of 2(S)-Amino-1-cyclohexyl-3(R),4(S)-dihydroxy-6-methylheptane] came in with an IC50 of 130 nM.

`CCCC[C@H](NC(=O)c1cc2ccccc2[nH]1)C(=O)N[C@@H](CC1CCCCC1)[C@@H](O)[C@@H](O)CC(C)C` [Example 40, N-(Indolyl-2-carbonyl)-Nle Amide of 2(S)-Amino-1-cyclohexyl-3(R),4(S)-dihydroxy-6-methylheptane] showed an IC50 of 15 nM.

Compound `CCCCC(C(=O)N[C@@H](CC1CCCCC1)[C@@H](O)[C@@H](O)CC(C)C)N1Cc2c([nH]c3ccccc23)C1=O` (stereo partly drawn) [Example 93, (1'RS,2"S,3"R,4"S)-2-[1-[N-(1-Cyclohexyl-3,4-dihydroxy-6-methyl-2-heptyl)carbamoyl]pentyl]-1,2,3,4-tetrahydropyrrolo[3,4-b]indol-3-one] registered an IC50 of 44 nM.

`CC(C)C[C@H](O)[C@H](O)[C@H](CC1CCCCC1)NC(=O)CN1Cc2c([nH]c3ccccc23)C1=O` [Example 75, (2'S,3'R,4'S)-2-[N-(1-cyclohexyl-3,4-dihydroxy-6-methyl-2-heptyl)carbamoyl]methyl-1,2,3,4-tetrahydropyrrolo[3,4-b]indol-3-one]: the IC50 came out at 200 nM.

As for `CC(C)C[C@H](O)[C@H](O)[C@H](CC1CCCCC1)NC(=O)[C@H](Cc1c[nH]cn1)NC(=O)c1nc2ccccc2n1Cc1ccccc1` [Example 48], the 50% inhibitory concentration (IC50) turned out to be 170 nM.

In turn, `CC(C)C[C@H](O)[C@H](O)[C@H](CC1CCCCC1)NC(=O)[C@H](Cc1c[nH]cn1)NC(=O)c1cc2ccccc2o1` [Example 43, N-(Benzofuranyl-2-carbonyl)-His Amide of 2(S)-Amino-1-cyclohexyl-3(R),4(S)-dihydroxy-6-methylheptane] gave an IC50 of 10 nM.

Compound `CC(C)C[C@H](O)[C@H](O)[C@H](CC1CCCCC1)NC(=O)[C@H](Cc1cc[nH]n1)N1Cc2c([nH]c3ccccc23)C1=O` [Example 87, (1'S,2"S,3"R,4"S)-2-[1-[N-(1-Cyclohexyl-3,4-dihydroxy-6-methyl-2-heptyl)carbamoyl]-2-(3-pyrazolyl)ethyl]-1,2,3,4-tetrahydropyrrolo[3,4-b]indol-3-one] came in with an IC50 of 9.5 nM.

The compound `COCOC[C@H](NC(=O)c1cc2ccccc2[nH]1)C(=O)N[C@@H](CC1CCCCC1)[C@@H](O)[C@@H](O)CC(C)C` [Example 150, N-(Indolyl-2-carbonyl)-(O-methoxymethyl)Ser Amide of 2(S)-Amino-1-cyclohexyl-3(R),4(S)-dihydroxy-6-methylheptane] came in with a 50% inhibitory concentration (IC50) of 27 nM.

In the case of `O=C(N[C@@H](Cc1c[nH]cn1)C(=O)NCC(O)CO)c1[nH]c2ccccc2c1CCC=CC1CCCCC1` (stereo partly drawn) [Example 127, N-[3-(4-Cyclohexylbut-3-enyl)indolyl-2-carbonyl]-His Amide of 3-Amino-1,2-propanediol], the IC50 worked out at 7000 nM.

The compound `CC(C)C[C@H](O)[C@H](O)[C@H](CC1CCCCC1)NC(=O)[C@H](Cc1c[nH]cn1)NC(=O)c1ccc2ccccc2n1` [Example 110, N-(Quinolinyl-2-carbonyl)-His Amide of 2(S)-Amino-1-cyclohexyl-3(R),4(S)-dihydroxy-6-methylheptane] registered an IC50 of 8.7 nM.

As to `CC(C)C[C@H](O)[C@H](O)[C@H](CC1CCCCC1)NC(=O)[C@H](Cc1c[nH]cn1)NC(=O)N1CCc2ccccc2C1` [Example 114, N-(1,2,3,4-Tetrahydroisoquinolinyl-2-carbonyl)-His Amide of 2(S)-Amino-1-cyclohexyl-3(R),4(S)-dihydroxy-6-methylheptane], the IC50 came to 63 nM.
